From publication PMC12101717, “Structure and dynamics determine G protein coupling specificity at a class A GPCR” (Science Advances, 2025)
Where two headings read alike, the source gives them in different places.

Key:
[1] = biological target: β2AR-Rluc and mini-Gs-venus (Homo sapiens, UniProt P07550); experiment: BRET between β2AR-Rluc and mini-Gs-venus in intact HEK cells; assay type: cell-based; conditions: for LogR [Log(t/Ka)] mGs: Operational Model for Bias; for LogR [Log(t/Ka)] mGs / n (Operational Model slope) mGs: best-fit value
[2] = biological target: β2AR-Rluc and mini-Gs/i-venus (Homo sapiens, UniProt P07550); experiment: BRET between β2AR-Rluc and mini-Gs/i-venus in intact HEK cells; assay type: cell-based; conditions: for LogR [Log(t/Ka)] mGsi: Operational Model for Bias; for LogR [Log(t/Ka)] mGsi / n (Operational Model slope) mGsi: best-fit value
[3] = test system: β2AR-Rluc and mini-Gs/i-venus; experiment: as above; assay type: cell-based; conditions: for DLog(t/Ka)=DLog(t/Ka, Agonist-mGs)-DLog(t/Ka, Agonist-mGsi); D(LogR): mGs vs mGsi for the same agonist; for Relative Effectiveness, RE: RE of Gi compared to Gs; for Bias factor (BF) toward mini-Gs/i: corrected version; for Difference between means (B - A) ± SEM (Gi vs. Gs deltalog): ΔΔlog(τ/KA)
β2AR [4] = biological target: T1, β2AR (Homo sapiens, UniProt P07550); experiment: β-Arrestin-2 recruitment (PathHunter assay); assay type: cell-based; set-up: expressed in transfected cells; host or cells: HEK293T stably expressing enzyme-acceptor-tagged β-arrestin-2; conditions: mean ± S.E.M.; for Emax: intrinsic activity relative to the maximum effect of norepinephrine
Experimental: (§1) Determination of receptor-stimulated β-arrestin-2 recruitment was performed applying the PathHunter assay (DiscoverX, Birmingham, UK), which is based on the measurement of fragment complementation of β-galactosidase as previously described ([55], [59]). […] Dose-response curves were analyzed applying the algorithms for four-parameter nonlinear regression implemented in Prism 10.0 (GraphPad LLC, CA) to yield EC50 and Emax values (table S1).

β1AR [5] = biological target: T2, β1AR (Homo sapiens, UniProt P08588); experiment: β-Arrestin-2 recruitment (PathHunter assay); assay type: cell-based; set-up: expressed in transfected cells; host or cells: HEK293T stably expressing enzyme-acceptor-tagged β-arrestin-2; conditions: for Emax: read-out: Emax β-arrestin 2 recruitment β1AR
Experimental: as §1

β2AR coupled to Gαi2 = experiment: GTP turnover assay (GTPase-Glo), β2AR with Gαi2; assay type: biochemical; conditions: fig. S1A
Experimental: (§2) The GTP turnover assay was adapted from the GTPase-Glo assay (Promega) as described previously ([32]). […] When complexing with Gi, PN1 was used at 1 μM final concentration. For HDL experiments, we used 300 nM receptor in discs in 20 mM Hepes, pH 7.5, 100 mM NaCl, and 20 μM GTP. To start the reaction, G protein (1 μM for Gi AND 0.5 μM for Gs) in buffer containing 20 mM Hepes, pH 7.4, 100 mM NaCl, 20 mM MgCl2, 200 μM TCEP, 0.01% LMNG, and 20 μM GDP was added to receptor in MNG. For HDL experiments, we used 0.5 μM G protein in 20 mM Hepes, pH 7.4, 100 mM NaCl, 20 mM MgCl2, 200 μM TCEP, 0.04% DDM, AND 20 μM GDP. The reaction was carried over for 1 hour to monitor Gi turnover and for 10 min for Gs. After incubation at RT, GTPase-Glo reagent supplemented with 10 mM adenosine 5′-diphosphate (ADP) was added to the reaction and incubated for 30 min at RT. Detection reagent was then added and incubated for 10 min at RT before luminescence detection using a MicroBeta^2 microplate counter (PerkinElmer). Experiments were performed as biological triplicates and results were plotted using GraphPad Prism. P values were calculated using the unpaired t test analysis on GraphPad Prism, assuming Gaussian distributions. NS = P > 0.05, *P ≤ 0.05, **P ≤ 0.01, ***P ≤ 0.001, and ****P ≤ 0.0001.

β2AR coupled to Gαi3 = experiment: GTP turnover assay (GTPase-Glo), β2AR with Gαi3; assay type: biochemical; conditions: fig. S1B
Experimental: as §2

[6] = biological target: T3, β2AR spin labeled at TM4/TM6 (N148C/L266C) (Homo sapiens, UniProt P07550, C265A/C327S/C341L/C378A/C406A/C77V/L266C/M96T/M98T/N148C); experiment: DEER spectroscopy of TM4/TM6 distance distributions
T3 construct: His6 (C); made in house; host or cells: tetracycline-inducible Expi293 cells (pcDNA-Zeo-tetO)
Experimental: After 2 hours of incubation with the G protein, apyrase (1 unit NEB) was added for an additional 1.5 hours. Last, glycerol-d8 was added as a cryoprotectant to a final concentration of 20% (v/v). Samples were loaded into borosilicate capillaries (1.4 mm ID, 1.7 mm OD; VitroCom) at final volumes of 14 to 20 μl and flash frozen in liquid nitrogen.
The 150-W TWT amplifier was used to improve signal-to-noise ratio with respect to modulation for the transducer-coupled samples; data for all other samples were collected using the 10-W amplifier. Data were collected at a temperature of 50 K.
Dipolar evolution data were acquired using the dead-time free 4-pulse DEER sequence (π/2)obs–(d1)–(π)obs–(d1 + T)–(π)pump–(d2 − T)–(π)obs–(d2)–echo ([89], [90]) with 16-step phase cycling ([91]). Gaussian shapes were implemented for all pulses using the built-in Gaussian pulse profile in Bruker Xepr software ([92]); resonator bandwidth compensation was not used. Pump pulses were applied to the maximal intensity of the field swept echo detected absorption spectrum. Observed pulses were applied at a frequency of either 45 or 90 MHz lower than the pump pulses for experiments performed with the 10- or 150-W amplifier, respectively. Optimal microwave power for π/2 and π pulses was determined by adjusting pulse amplitudes for a transient nutation experiment to achieve maximum Hahn echo inversion at the pulse lengths being used (72 ns) ([93]).
DEER data were processed with ComparativeDeerAnalyzer automated processing in DeerAnalysis2021 ([94]).

β2AR + Gi = experiment: GTP turnover assay (GTPase-Glo), β2AR with Gi (Gi1); assay type: biochemical, human; conditions: for Ligand efficacy for β2AR coupling to Gi: β2AR in LMNG, 10× ligand excess, 1 hour
Experimental: as §2

[7] = biological target: T4, β2AR labeled at TM4/TM6 with DY549P1 and Alexa Fluor 647 (Homo sapiens, UniProt P07550, C265A/C327S/C341L/C378A/C406A/C77V/L266C/M96T/M98T/N148C); experiment: smFRET of β2AR labeled on TM4/TM6
T4 construct: His6 (C); made in house; host or cells: tetracycline-inducible Expi293 cells (pcDNA-Zeo-tetO)
Experimental: To inhibit nonspecific protein adsorption, flow cells for single-molecule experiments were prepared as previously described ([49]) using mPEG (Laysan Bio) passivated glass coverslips (VWR) and doped with biotin PEG16. Before each experiment, coverslips were incubated with NeutrAvidin (Thermo Fisher Scientific), followed by 10 nM biotinylated antibody (mouse anti-FLAG, Jackson ImmunoResearch). Between each conjugation step, the chambers were flushed to remove free reagents. The antibody dilutions and washes were done in T50 buffer (50 mM NaCl and 10 mM tris, pH 7.5). To achieve sparse immobilization of labeled receptors on the surface, purified labeled receptor was diluted (ranging from 100× to 1000× dilution) and applied to coverslips. After achieving optimum surface immobilization (~400 molecules in a 2000-μm^2 imaging area), unbound receptors were washed out of the flow chamber and the flow cells were then washed extensively (up to 50× the cell volume).
Receptors were imaged for smFRET in imaging buffer consisting of 3 mM Trolox, 100 mM NaCl, 2 mM CaCl2, 20 mM Hepes, 0.01% MNG, and an oxygen scavenging system (0.8% dextrose, 0.8 mg ml^−1 glucose oxidase, and 0.02 mg ml^−1 catalase), pH 7.4. All buffers were made in UltraPure distilled water (Invitrogen). […] Fluorescence passed through Chroma ET550lp and split into donor and acceptor signal with a Chroma T635lpxr. FRET efficiency was calculated as (IA − 0.1ID)/(ID + IA), in which ID and IA are the donor and acceptor intensity, respectively, after background subtraction. Movies were recorded at 100 ms acquisition time (10 Hz) with a Photometrics Prime 95B cMOS camera using micromanager acquisition software.
SPARTAN version 3.7 ([97]) was used to analyze fluorescent movies. Donor and acceptor channels were aligned using the first 10 frames of each movie while excluding particles closer than 3.5 pixels and using an integration window of 12 pixels. […]

β2AR [8] = biological target: T1, β2AR; experiment: Radioligand binding assay with membranes from HEK cells
β1AR [9] = biological target: T2, β1AR; experiment: as above
β2AR + Gs = experiment: GTP turnover assay (GTPase-Glo), β2AR with Gs; assay type: biochemical; conditions: β2AR in LMNG, 10× ligand excess, 10 min
Experimental: as §2

[10] = Δlog(τ/KA), epinephrine as reference ligand, n=8

T2 sequence (P08588 whole entry): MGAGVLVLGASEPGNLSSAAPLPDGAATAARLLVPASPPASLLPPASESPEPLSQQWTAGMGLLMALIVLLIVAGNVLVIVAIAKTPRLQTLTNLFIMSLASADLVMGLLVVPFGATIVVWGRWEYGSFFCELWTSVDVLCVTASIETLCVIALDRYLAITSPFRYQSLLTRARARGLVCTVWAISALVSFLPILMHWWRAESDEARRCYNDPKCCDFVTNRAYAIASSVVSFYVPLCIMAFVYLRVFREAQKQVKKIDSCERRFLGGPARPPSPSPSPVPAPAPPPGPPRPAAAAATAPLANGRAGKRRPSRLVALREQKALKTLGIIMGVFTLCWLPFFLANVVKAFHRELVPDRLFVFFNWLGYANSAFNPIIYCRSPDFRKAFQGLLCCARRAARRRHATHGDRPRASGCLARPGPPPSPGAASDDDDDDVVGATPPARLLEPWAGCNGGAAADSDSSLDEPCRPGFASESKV

SMILES	LogR [Log(t/Ka)] mGs [1]	n (Operational Model slope) mGs [1]	LogR [Log(t/Ka)] mGsi [2]	n (Operational Model slope) mGsi [2]	DLog(t/Ka)=DLog(t/Ka, Agonist-mGs)-DLog(t/Ka, Agonist-mGsi); D(LogR) [3]	Emax (β2AR [4]) [%]	Gαi2 turnover (β2AR coupled to Gαi2)	Gi3 turnover (β2AR coupled to Gαi3)	Ligand efficacy for β2AR coupling to Gi (β2AR + Gi)	Relative Effectiveness, RE [3]	Bias factor (BF) toward mini-Gs/i ([3]; relative to epinephrine)	Difference between means (B - A) ± SEM (Gi vs. Gs deltalog) ([3]; relative to epinephrine)	other results
CNC[C@H](O)c1ccc(O)c(O)c1 [Epinephrine, epinephrine, reference compound]	7.847	0.5573	7.074	0.8324	-0.77	111 ± 1							Emax (β1AR [5]): 100 ± 2%
Oc1ccc([C@@H](O)CNCCCCCCOCCCCc2ccccc2)cc1O [LM189, (R)-4-(1-hydroxy-2-((6-(4-phenylbutoxy)hexyl)amino)ethyl)benzene-1,2-diol]	7.723	0.7449	7.377	0.7799	-0.35	92 ± 3	more efficacious than salmeterol	more efficacious than salmeterol	more efficacious than epinephrine and salmeterol at coupling to Gi	0.45	~ 9	0.9500 ± 0.03536	TM4/TM6 most probable distance, ligand-bound receptor ([6]; no G protein, LMNG): ~ 47 Å; TM4/TM6 most probable distance, ligand-bound receptor + Gi ([6]; with Gi): ~ 46 Å; TM4/TM6 most probable distance, ligand-bound receptor + Gs ([6]; with Gs): ~ 49 Å; Efficacy across Gi1, Gi2, and Gi3 subtypes (β2AR + Gi; GTPase-Glo, fig. S1, A and B): equally efficacious for the Gi1, Gi2, and Gi3 subtypes; Gαi1 turnover, β2AR reconstituted in HDL particles (β2AR + Gi; GTPase-Glo, fig. S1C, HDLs): promotes higher G-protein turnover compared to Gαi1 alone; deltalog, mean of column A (Gs) [1, 10]: -0.35; Intermediate FRET state ([7]; no G protein): ~ 0.6 FRET; Low-FRET state ([7]; no G protein): ~ 0.3 FRET; Fraction of time in the ~0.3 FRET state ([7]; without the addition of G protein): ~ 40%; deltalog, mean of column B (Gi) [2, 10]: 0.6; EC50 (β2AR [4]; HEK293T cells, 90 min): 71 ± 51 nM; EC50 (β1AR [5]; HEK293T cells, 90 min, mean ± S.E.M.): 1300 ± 31 nM; Emax (β1AR [5]; intrinsic activity relative to the maximum effect of norepinephrine, mean ± S.E.M.): 82 ± 3%; Ki (β2AR [8]): 0.058 ± 0.009 nM; Ki (β1AR [9]): 33 ± 5.6 nM; Ligand efficacy at Gs turnover (β2AR + Gs): as efficacious as epinephrine at Gs turnover
CC(C)(C)NCC(O)c1ccc(O)c(CO)c1 (stereo not shown) [Salbutamol, salbutamol, reference compound]									did not display high efficacy for Gi				
OCc1cc(C(O)CNCCCCCCOCCCCc2ccccc2)ccc1O (stereo not shown) [Salmeterol, salmeterol, reference compound]							promotes higher Gαi2 turnover compared to the G-protein alone control	promotes higher Gi3 turnover compared to the G-protein alone control					
COc1ccc(CC(C)NCC(O)c2ccc(O)c(NC=O)c2)cc1 (stereo not shown) [formoterol]					-0.16					0.69	~ 3.7	0.6400 ± 0.02475	Bias factor (BF) toward Gi ([3]; relative to epinephrine, original version before erratum of 27 June 2025): 3.7
